The test system of test [1] is PBMCs from YF-17DD vaccinees. The test is classed as cell-based, human.
In test [2] the test system is 14 different HLA class II molecules. The class given is binding, human.
In test [3] the test system is CD4^+ depleted PBMCs from YF-17DD vaccinees. The class given is cell-based, human.
The subject of test [4] is CD8^+ T-cells isolated from HLA-A*0201 positive individuals. The test is classed as cell-based, human.

Marks after values point to notes of the source that are not given here.

For `CC[C@H](C)[C@H](NC(=O)CNC(=O)[C@H](CCCCN)NC(=O)[C@H](CC(N)=O)NC(=O)[C@@H](NC(=O)[C@H](C)NC(=O)[C@H](C)NC(=O)[C@@H](NC(=O)[C@H](CC(C)C)NC(=O)[C@H](CC(=O)O)NC(=O)[C@H](CC(=O)O)NC(=O)[C@H](C)N)[C@@H](C)O)[C@@H](C)CC)C(=O)N[C@@H](CC(C)C)C(=O)N[C@H](C(=O)N[C@H](C(=O)O)[C@@H](C)O)C(C)C` [Env337–351], in test [1], the “ELISPOT Max” value was found to be 30 SFC/10^6 PBMC, the “ELISPOT Min” value is listed as 12 SFC/10^6 PBMC, the No. of responders worked out at 3 and the “Recognition frequency (%) (Table S1)” value worked out at 17%. In test [2], the “Level of peptide promiscuity” value is “intermediate (key: low (affinity to 2 to 5 HLA class II molecules bound); intermediate (affinity to 6 to 9 HLA class II molecules bound); highly promiscuous (binding to ≥10 HLA molecules))” and the “Total DR bound” value came out at 9.

`CC[C@H](C)[C@H](NC(=O)CNC(=O)[C@H](CCCCN)NC(=O)[C@@H](N)CC(N)=O)C(=O)N[C@@H](CC(C)C)C(=O)N[C@H](C(=O)N[C@H](C(=O)N[C@H](C(=O)N[C@@H](CC(N)=O)C(=O)N1CCC[C@H]1C(=O)N[C@H](C(=O)N[C@@H](C)C(=O)N[C@@H](CO)C(=O)N[C@H](C(=O)N[C@@H](CC(N)=O)C(=O)O)[C@@H](C)O)[C@@H](C)CC)C(C)C)[C@@H](C)O)C(C)C` [Env345–359]: in test [1], the “ELISPOT Max” value is given as 271 SFC/10^6 PBMC, the “ELISPOT Min” value is given as 10 SFC/10^6 PBMC, the No. of responders is 9 and the “Recognition frequency (%) (Table S1)” value came to 33%. In test [2], the “Level of peptide promiscuity” value is “highly promiscuous (key: low (affinity to 2 to 5 HLA class II molecules bound); intermediate (affinity to 6 to 9 HLA class II molecules bound); highly promiscuous (binding to ≥10 HLA molecules))” and the “Total DR bound” value was 13. In test [3], the “IFN-γ SFC Average ± STDEV” value is given as 315±160 SFC (CD4-depleted PBMCs/10^6), the “IFN-γ SFC Median” value is 287 SFC (CD4-depleted PBMCs/10^6) and the “No. of responders (CD4-depleted PBMCs)” value is 3.

`CC[C@H](C)[C@H](NC(=O)[C@H](CC(C)C)NC(=O)[C@@H](NC(=O)[C@H](CCC(=O)O)NC(=O)[C@@H](N)CC(=O)O)C(C)C)C(=O)N[C@@H](CCC(=O)O)C(=O)N[C@H](C(=O)N[C@@H](CC(N)=O)C(=O)N1CCC[C@H]1C(=O)N1CCC[C@H]1C(=O)N[C@@H](Cc1ccccc1)C(=O)NCC(=O)N[C@@H](CC(=O)O)C(=O)N[C@@H](CO)C(=O)N[C@@H](Cc1ccc(O)cc1)C(=O)O)C(C)C` [Env361–375]: in test [1], the “ELISPOT Max” value came out at 203 SFC/10^6 PBMC, the “ELISPOT Min” value came out at 14 SFC/10^6 PBMC, the No. of responders is reported as 4 and the “Recognition frequency (%) (Table S1)” value is listed as 15%. Further, the “Total DR bound” value in test [2] was 10. In test [3], the “IFN-γ SFC Average ± STDEV” value was 16±0 SFC (CD4-depleted PBMCs/10^6), the “IFN-γ SFC Median” value was 16 SFC (CD4-depleted PBMCs/10^6) and the “No. of responders (CD4-depleted PBMCs)” value was 2.

Regarding `CSCC[C@H](NC(=O)[C@@H](NC(=O)[C@@H](N)C(C)C)C(C)C)C(=O)N[C@H](C(=O)N[C@@H](CO)C(=O)N[C@@H](CC(C)C)C(=O)N[C@@H](C)C(=O)N[C@@H](CC(C)C)C(=O)N[C@H](C(=O)NCC(=O)N[C@@H](C)C(=O)N[C@@H](C)C(=O)N[C@@H](CC(C)C)C(=O)N[C@@H](Cc1c[nH]cn1)C(=O)N1CCC[C@H]1C(=O)O)C(C)C)[C@@H](C)O` [NS2b97–111], in test [1], the “ELISPOT Max” value is listed as 26 SFC/10^6 PBMC, the “ELISPOT Min” value was determined as 10 SFC/10^6 PBMC, the No. of responders is on record as 6 and the “Recognition frequency (%) (Table S1)” value worked out at 10%. Moreover, in test [2], the “Level of peptide promiscuity” value is on record as “intermediate (key: low (affinity to 2 to 5 HLA class II molecules bound); intermediate (affinity to 6 to 9 HLA class II molecules bound); highly promiscuous (binding to ≥10 HLA molecules))” and the “Total DR bound” value is 7.

With `CC[C@H](C)[C@H](NC(=O)[C@@H](NC(=O)[C@H](CCC(=O)O)NC(=O)CNC(=O)[C@H](CC(N)=O)NC(=O)[C@H](CCCNC(=N)N)NC(=O)[C@H](CC(N)=O)NC(=O)[C@@H](NC(=O)[C@@H](NC(=O)[C@@H]1CCCN1C(=O)[C@H](CO)NC(=O)CNC(=O)[C@H](CO)NC(=O)[C@@H](NC(=O)CN)[C@@H](C)O)[C@@H](C)CC)C(C)C)C(C)C)C(=O)O` [NS3_137–151], in test [1], the “ELISPOT Max” value stood at 137 SFC/10^6 PBMC, the “ELISPOT Min” value is 18 SFC/10^6 PBMC, the No. of responders was 5 and the “Recognition frequency (%) (Table S1)” value amounted to 11%. The “Total DR bound” value in test [2] is recorded as 1. Further, in test [3], the “No. of responders (CD4-depleted PBMCs)” value is 0.

For `CSCC[C@H](NC(=O)[C@H](C)NC(=O)[C@H](CCSC)NC(=O)[C@@H](N)CCCNC(=N)N)C(=O)N[C@H](C(=O)N[C@@H](CC(=O)O)C(=O)N[C@H](C(=O)N[C@H](C(=O)N1CCC[C@H]1C(=O)N[C@@H](Cc1ccccc1)C(=O)NCC(=O)N[C@@H](CCC(N)=O)C(=O)N[C@@H](CCC(N)=O)C(=O)N[C@@H](CCCNC(=N)N)C(=O)N[C@H](C(=O)O)C(C)C)[C@@H](C)O)[C@@H](C)O)[C@@H](C)O` [NS5_341–355], in test [1], the “ELISPOT Max” value was found to be 267 SFC/10^6 PBMC, the “ELISPOT Min” value was found to be 27 SFC/10^6 PBMC, the No. of responders was 6 and the “Recognition frequency (%) (Table S1)” value stood at 12%. Also, in test [2], the “Level of peptide promiscuity” value is “low (key: low (affinity to 2 to 5 HLA class II molecules bound); intermediate (affinity to 6 to 9 HLA class II molecules bound); highly promiscuous (binding to ≥10 HLA molecules))” and the “Total DR bound” value is on record as 4. Also, the “No. of responders (CD4-depleted PBMCs)” value in test [3] was 0.

Consider `CC(C)[C@H](NC(=O)[C@H](CCCNC(=N)N)NC(=O)[C@H](CCC(N)=O)NC(=O)[C@H](CCC(N)=O)NC(=O)CNC(=O)[C@H](Cc1ccccc1)NC(=O)[C@@H]1CCCN1C(=O)[C@@H](NC(=O)[C@@H](NC(=O)[C@H](CC(=O)O)NC(=O)[C@@H](N)[C@@H](C)O)[C@@H](C)O)[C@@H](C)O)C(=O)N[C@@H](Cc1ccccc1)C(=O)N[C@@H](CCCCN)C(=O)N[C@@H](CCC(=O)O)C(=O)N[C@@H](CCCCN)C(=O)O` [NS5_345–359], for which, in test [1], the “ELISPOT Max” value is 914 SFC/10^6 PBMC, the “ELISPOT Min” value turned out to be 55 SFC/10^6 PBMC, the No. of responders was determined as 8 and the “Recognition frequency (%) (Table S1)” value turned out to be 17%. In test [2], the “Level of peptide promiscuity” value is “low (key: low (affinity to 2 to 5 HLA class II molecules bound); intermediate (affinity to 6 to 9 HLA class II molecules bound); highly promiscuous (binding to ≥10 HLA molecules))” and the “Total DR bound” value is reported as 2. In test [3], the “IFN-γ SFC Average ± STDEV” value is listed as 66±71 SFC (CD4-depleted PBMCs/10^6), the “IFN-γ SFC Median” value was 32 SFC (CD4-depleted PBMCs/10^6) and the “No. of responders (CD4-depleted PBMCs)” value was found to be 3.

Consider `CC[C@H](C)[C@H](NC(=O)[C@H](C)NC(=O)[C@H](CCCNC(=N)N)NC(=O)[C@H](CO)NC(=O)CNC(=O)[C@H](CCCCN)NC(=O)[C@H](C)NC(=O)[C@H](CCCCN)NC(=O)CNC(=O)[C@H](Cc1ccccc1)NC(=O)[C@@H](N)CCC(=O)O)C(=O)N[C@@H](Cc1c[nH]c2ccccc12)C(=O)N[C@@H](Cc1ccc(O)cc1)C(=O)N[C@@H](CCSC)C(=O)N[C@@H](Cc1c[nH]c2ccccc12)C(=O)O` [NS5_465–479], for which, in test [1], the “ELISPOT Max” value amounted to 1593 SFC/10^6 PBMC, the “ELISPOT Min” value came to 10 SFC/10^6 PBMC, the No. of responders was 6 and the “Recognition frequency (%) (Table S1)” value turned out to be 12%. For the same compound, in test [2], the “Level of peptide promiscuity” value is on record as “intermediate (key: low (affinity to 2 to 5 HLA class II molecules bound); intermediate (affinity to 6 to 9 HLA class II molecules bound); highly promiscuous (binding to ≥10 HLA molecules))” and the “Total DR bound” value came out at 7. Further, in test [3], the “IFN-γ SFC Average ± STDEV” value is 168±0 SFC (CD4-depleted PBMCs/10^6), the “IFN-γ SFC Median” value is reported as 168 SFC (CD4-depleted PBMCs/10^6) and the “No. of responders (CD4-depleted PBMCs)” value is listed as 2.

`CC[C@H](C)[C@H](NC(=O)[C@H](C)NC(=O)[C@H](CCCNC(=N)N)NC(=O)[C@H](CO)NC(=O)CNC(=O)[C@H](CCCCN)NC(=O)[C@H](C)N)C(=O)N[C@@H](Cc1c[nH]c2ccccc12)C(=O)N[C@@H](Cc1ccc(O)cc1)C(=O)N[C@@H](CCSC)C(=O)N[C@@H](Cc1c[nH]c2ccccc12)C(=O)N[C@@H](CC(C)C)C(=O)NCC(=O)N[C@@H](C)C(=O)N[C@@H](CCCNC(=N)N)C(=O)O` [NS5_469–483]: in test [1], the “ELISPOT Max” value came to 1828 SFC/10^6 PBMC, the “ELISPOT Min” value came out at 13 SFC/10^6 PBMC, the No. of responders is 8 and the “Recognition frequency (%) (Table S1)” value came out at 17%. Moreover, in test [2], the “Level of peptide promiscuity” value is listed as “highly promiscuous (key: low (affinity to 2 to 5 HLA class II molecules bound); intermediate (affinity to 6 to 9 HLA class II molecules bound); highly promiscuous (binding to ≥10 HLA molecules))” and the “Total DR bound” value was found to be 10.

On to `CC(C)C[C@H](NC(=O)[C@H](C)NC(=O)[C@H](CCC(=O)O)NC(=O)[C@H](Cc1ccccc1)NC(=O)[C@H](CCC(=O)O)NC(=O)[C@H](CC(C)C)NC(=O)[C@H](Cc1ccc(O)cc1)NC(=O)[C@H](CCCNC(=N)N)NC(=O)[C@H](C)NC(=O)CN)C(=O)NCC(=O)N[C@@H](Cc1ccccc1)C(=O)N[C@@H](CC(C)C)C(=O)N[C@@H](CC(N)=O)C(=O)N[C@@H](CCC(=O)O)C(=O)O` [NS5_481–495], for which, in test [1], the “ELISPOT Max” value worked out at 1022 SFC/10^6 PBMC, the “ELISPOT Min” value was found to be 13 SFC/10^6 PBMC, the No. of responders is 11 and the “Recognition frequency (%) (Table S1)” value was determined as 23%. For the same compound, in test [2], the “Level of peptide promiscuity” value was “highly promiscuous (key: low (affinity to 2 to 5 HLA class II molecules bound); intermediate (affinity to 6 to 9 HLA class II molecules bound); highly promiscuous (binding to ≥10 HLA molecules))” and the “Total DR bound” value is 10. In test [3], the “IFN-γ SFC Average ± STDEV” value is 95±0 SFC (CD4-depleted PBMCs/10^6), the “IFN-γ SFC Median” value is 95 SFC (CD4-depleted PBMCs/10^6) and the “No. of responders (CD4-depleted PBMCs)” value is reported as 2.

As for LWNGPMAVS [NS4b77–85], the “T-cell activation by 9-mers covering NS4b77–91” value in test [1] is “induced the most T-cell activation”. In test [4], the “yield of cellular proliferation of the CD8^+ T-cell population expanded by aAPCs” value is reported as 2×10^6.

The record behind these values is article PMC3561163 (PLoS Neglected Tropical Diseases, 2013).
